In brackets after ≈: the same amount, converted by molar mass.
Tested on: Candida albicans standard strain (ATCC 10231) and clinical isolates
Assay: Broth micro-dilution assay, minimal inhibitory concentration (MIC)
Assay type: cell-based
Conditions: Candida albicans, C. albicans ATCC 10231; mean value; read-out: MIC

**Q.** How did the MIC turn out when CC1(C)CC[C@]2(C)CC[C@]3(C)C(CCC4C5(C)CCC(O)C(C)(C)C5CC[C@]43C)C2C1 (stereo partly drawn) [Compound 1.2, β-amyrin] was run?
**A.** 4 µg/mL (≈ 9.33 µM)

Reference: US9682114B2, “Plant extracts of Ptaeroxylon obliquum nand compounds having antimicrobial and antihelminthic activity” (UNIVERSITY OF PRETORIA, priority 2013, dated 2017)
